According to patent publication US20130150350A1, “Derivatives of 1-Phenyl-1,5-Dihydro-Benzo[B] [1,4]Diazepine-2,4-Dione as Inhibitors of HIV Replication” (BOEHRINGER INGELHEIM INTERNATIONAL GMBH, priority 2010, published 2013):
Read-outs that look alike come from different tables or passages of the source.

Assays:
[1] = target: T1, assembled HIV-1 capsid complexes (CA-NC protein, SEQ ID NO: 2) (Human immunodeficiency virus type 1 group M subtype B, UniProt P12493, G226D); experiment: Capsid disassembly assay (CDA); type: biochemical
T1 construct: HIV-1NL4-3 CA-NC, Gag residues 133-432; initiator Met (start codon introduced by PCR primer) (N); made in house; host or cells: E. coli BL21(DE3), pET-11a
Text: The GAG polyprotein is the major structural protein required for HIV viral particle assembly. During the maturation process, Gag is cleaved by the viral protease and releases its four major proteins, matrix (MA), capsid (CA), nucleocapside (NC) and p6, as well as two spacer peptides termed SP1 and SP2. This triggers profound morphological changes to the viral particle as CA will reassemble to form the viral core, a structure that is essential for viral infectivity.
(§1) SEQ ID NO: 1 is a nucleic acid of 900 base pairs encoding HIV-1NL4-3 CA-NC, Gag residues 133-432, having the CA G94D mutation (SEQ ID NO: 2). SEQ ID NO: 1, is transferred to pET-11a expression vector (Novagen™) by PCR amplification using primers that introduce an NdeI site and a start codon at the 5′-end and a BamHI site and a stop codon at the 3′-end. Resistance mutations in CA were identified by passage of the HIV-1 virus in the presence of compounds of the invention, namely V27A/I, K30R, S33G, V36T, T58I, G61E, G208A/R, E213G, K30R/T58I, K30R/G208R, V36T/G208R, S33G/T58I, S33G/G208R and T58I/G208R, all numbered with reference to SEQ ID NO: 2,. These resistance mutations may be introduced in the expression vector using the QuikChange® II Site-Directed Mutagenesis Kit (Stratagene) according to the manufacturer's instructions. SEQ ID NOS: 2 is expressed in the BL21(DE3) E. coli cells (Novagen™). Briefly, LB media is inoculated with overnight pre-cultures and grown at 37° C. until mid log-phase (Abs600 ˜0.6), protein expression is induced by addition of 0.5-1 mM isopropyl-β,D-thiogalactopyranoside (IPTG) and carried out for 4 to 6 hours at 30° C. Cells are harvested by centrifugation and pellets are stored at −80° C. until purification.
(§2) Purification of CA-NC (SEQ ID NO: 2) is as follows: 5 to 10 g of cell paste are lysed by sonication in 40 ml of Buffer A [20 mM Tris pH 7.5; 1 μM ZnCl2; 10 mM β-mercaptoethanol] supplemented with 0.5M NaCl and Complete EDTA-free® protease inhibitors tablets (Roche). Nucleic acids and cell debris are removed by adding 0.11 volumes of 0.2 M ammonium sulfate and an equivalent volume of 10% poly-(ethyleneimine) pH 8.0, stirring the sample for 20 minutes at 4° C., followed by centrifugation at 30 000×g for 20 minutes. SEQ ID NO: 2 is recovered from the supernatant by adding 0.35 volumes of saturated ammonium sulfate solution followed by centrifugation at 10 000×g for 15 minutes. The pellet is dissolved in 10 ml of Buffer A+0.1 M NaCl and dialyzed overnight in the same buffer but at 0.05 M NaCl (Dialysis Buffer). The sample is then cleared by centrifugation and passed on a 1-ml HiTrapTMSP HP column (GE Healthcare) pre-equilibrated with Dialysis Buffer. SEQ ID NO: 2 is eluted with Buffer A+0.5 M NaCl, fractions containing the protein are pooled; concentration determination is done by Abs280 using the calculated molar extinction coefficient (E=40220 M-1 cm-1).
Reacti-Bind Neutravidin Coated black 384-well plates (Pierce Cat#15402) are washed with 80 μl/well of Buffer A (50 mM Tris pH 8.0; 350 mM NaCl; 10 μM ZnSO4; 0.0025% CHAPS (w/v); 50 μg/ml BSA; 1 mM DTT). Immobilization of a 5′-end biotin labeled (TG)25 oligonucleotide (Integrated DNA Technology Inc.) is carried out by adding 50 μl/well of a 25 nM solution of oligonucleotide in Buffer A+5 mg/ml BSA and incubating overnight. Unbound material is removed by two 80 μl/well washes with Buffer A. Assembly reactions are performed in 60 μl/well reactions comprising 100 nM of 5′-end fluorescein labeled (TG)25 oligonucleotide (Integrated DNA Technology Inc.) and 2 μM of CA-NC protein (SEQ ID NO: 2), using Buffer A. Assembly reactions are incubated for 2 hours at room temperature and non-immobilized material is removed by washing 80 μl/well with Buffer A. Test compounds, serially diluted in Buffer A+0.125% dimethyl sulfoxide (DMSO), are added to the wells (60 μl/well) and incubated at room temperature for 2 hours. […]

[2] = target: T2, HIV-1NL4-3 CA-NC protein (SEQ ID NO: 2) (Human immunodeficiency virus type 1 group M subtype B, UniProt P12493, G226D); experiment: Immobilized capsid assembly assay (CAA); type: biochemical
T2 construct: HIV-1NL4-3 CA-NC, Gag residues 133-432; initiator Met (start codon introduced by PCR primer) (N); made in house; host or cells: E. coli BL21(DE3), pET-11a
Text: as §1, §2
Reacti-Bind Neutravidin Coated black 384-well plates (Pierce Cat#15402) are washed with 80 μl/well of Buffer A (50 mM Tris pH 8.0; 350 mM NaCl; 10 μM ZnSO4; 0.0025% CHAPS (w/v); 50 μg/ml bovine serum albumin (BSA); 1 mM DTT). Immobilization of a 5′-end biotin labeled (TG)25 oligonucleotide (Integrated DNA Technology Inc.) is carried out by adding 50 μl/well of a 25 nM solution of oligonucleotide in Buffer A+5 mg/ml of BSA (Sigma™) and incubating overnight. Unbound material is removed by two 80 μl/well washes with Buffer A. Assembly reactions are performed in 60 μl/well reactions comprising test compound, 100 nM of 5′-end fluorescein labeled (TG)25 oligonucleotide (Integrated DNA Technology Inc.) and 2 μM of CA-NC protein (SEQ ID NO: 2), using Buffer A+1% DMSO. Assembly reactions are incubated for 2 hours at room temperature and non-immobilized material is removed by two successive 80 μl/well washes with Buffer A. Finally, 80 μl/well of Buffer A+0.1% sodium dodecyl sulfate (SDS) is added and incubated for 15 minutes prior to quantification of captured fluorescence on a Victor2 plate reader (PerkinElmer Life Sciences) equipped with fluorescein excitation and emission filters using the standard manufacturer's settings for fluorescein fluorescence. The amount of captured fluorescence is considered to be proportional to the level of assembly. The IC50 values for each compound are generated by fitting inhibition curves from ten-point dilution series to the following equation: […]

[3] = system: HIV-1 replication in C8166 LTRluc cells; experiment: C8166 HIV-1 luciferase assay; type: cell-based; conditions: Human immunodeficiency virus 1, 72 h, inhibition of HIV-1 replication, moi 0.005, 3 days
Experimental: The assay used to measure inhibition of HIV replication is as described in WO 2004/050643, pages 73-75, herein incorporated by reference, with the following modifications:
Serial dilutions of HIV-1 inhibitors are prepared in complete media from DMSO stock solutions. Eleven serial dilutions of desired concentration are prepared in a 1 mL deep well titer plate (96 wells). The 12th well contains complete media with no inhibitor and serves as the positive control. All samples contain the same concentration of DMSO 0.1% DMSO). Inhibitor is added, to triplicate wells, of a 96 well tissue culture treated clear view black microtiter plate (Corning Costar catalogue #3904). The total volume per well is 200 μL of media containing the cells and inhibitor. The last row is reserved for uninfected C8166 LTRluc cells to serve as the background blank control and the first row is media alone.
Count C8166 LTRluc cells and place in a minimal volume of complete RPMI 1640 in a tissue culture flask (ex. 30×10^6 cells in 10 mL media/25 cm^2 flask). Infect cells with HIV-1 at a moi of 0.005. Incubate cells for 1.5 hours at 37° C. on a rotating rack in a 5% CO2 incubator. Resuspend cells in complete RPMI to give a final concentration of 25,000-cells/well. Add cells to wells of 96 well microtiter plate containing inhibitors. Add 25,000 uninfected C8166—LTRluc cells/well in 200 μL complete RPMI to last row for background control. Incubate cells at 37° C. in 5% CO2 incubator for 3 days.

[4] = concentration for 50% disassembly of assembled complexes, 2 hours at room temperature, read-out: IC50 (μM) CDA
[5] = concentration for 50% inhibition of capsid assembly, 2 μM CA-NC, 2 hours at room temperature, read-out: IC50 (μM) CAA

Compound | IC50 [1] | IC50 [2] | EC50 [3] | IC50 [1, 4] | IC50 [2, 5]
CCN1C(=O)C2(CCc3ccccc32)C(=O)N(c2ccccc2)c2cc(C(F)(F)F)ccc21 (racemic) [Compound 7001] | 0.46 µM | 0.73 µM | 1500 nM |  | 
CCN1C(=O)/C(=C/NCCOC)C(=O)N(c2ccccc2)c2cc(Cl)ccc21 [Compound 1004] |  |  | 12700 nM | 0.38 µM | 0.47 µM
COCCN/C=C1/C(=O)N(C)c2ccc(C(F)(F)F)cc2N(c2ccccc2)C1=O [Compound 1011] | 0.86 µM | 0.89 µM | 12000 nM |  | 
CCN1C(=O)C(c2ccccc2)C(=O)N(c2ccccc2)c2cc(C(F)(F)F)ccc21 (centres unmarked) [Compound 2002] | 0.48 µM | 0.73 µM | 2600 nM |  | 
CCN1C(=O)C(c2ccccc2)C(=O)N(c2cccs2)c2cc(C(F)(F)F)ccc21 (centres unmarked) [Compound 2003] | 0.39 µM | 0.81 µM | 2500 nM |  | 
CN1C(=O)C(c2ccc(O)cc2)C(=O)N(c2ccccc2)c2cc(C(F)(F)F)ccc21 (centres unmarked) [Compound 2009] | 0.14 µM | 0.91 µM | 900 nM |  | 
CCN1C(=O)C(c2ccc(CN3CCNCC3)cc2)C(=O)N(c2ccccc2)c2cc(C(F)(F)F)ccc21 (centres unmarked) [Compound 2018] | 0.28 µM | 0.52 µM | 800 nM |  | 
CCN1C(=O)C(c2ccc(-c3cccnc3)cc2)C(=O)N(c2ccccc2)c2cc(C(F)(F)F)ccc21 (centres unmarked) [Compound 2030] | 0.32 µM | 0.39 µM | 400 nM |  | 
CCN1C(=O)C(c2cccc(-c3cccnc3)c2O)C(=O)N(c2ccccc2)c2cc(C(F)(F)F)ccc21 (centres unmarked) [Compound 2035] |  | 1.28 µM | 5800 nM |  | 
CCCn1cc(-c2cc(C3C(=O)N(CC)c4ccc(C(F)(F)F)cc4N(c4ccccc4)C3=O)cc(OC)c2O)cn1 (centres unmarked) [Compound 2059] | 0.16 µM | 0.45 µM | 70 nM |  | 
CCN1C(=O)C(c2cccnc2)C(=O)N(c2ccccc2)c2cc(C(F)(F)F)ccc21 (centres unmarked) [Compound 2076] |  | 1.6 µM | 4100 nM |  | 
CCN1C(=O)N(c2ccccc2)C(=O)N(c2ccccc2)c2cc(C(F)(F)F)ccc21 [Compound 3011] |  |  | 600 nM | 0.18 µM | 0.63 µM
CCN1C(=O)N(c2ccc(CO)cc2)C(=O)N(c2ccccc2)c2cc(C(F)(F)F)ccc21 [Compound 3027] |  |  | 700 nM | 0.1 µM | 
CCN1C(=O)N(c2ccc(C(=O)O)cc2)C(=O)N(c2ccccc2)c2cc(C(F)(F)F)ccc21 [Compound 3034] |  |  | 2600 nM | 0.27 µM | 
CCN1C(=O)N(c2ccc(C(=O)NC[C@@H]3CCCN3CC)cc2)C(=O)N(c2ccccc2)c2cc(C(F)(F)F)ccc21 [Compound 3055] |  |  | 400 nM | 0.13 µM | 
CN1c2ccc(Cl)cc2N(c2ccccc2)C(=O)c2cn(C)nc21 [Compound 4002] |  |  | 6900 nM |  | 0.71 µM
CN1c2ccc(Cl)cc2N(c2ccccc2)C(=O)c2c[nH]nc21 [Compound 4007] |  |  | 7800 nM |  | 0.31 µM
CN1c2ccc(Cl)cc2N(c2ccccc2)C(=O)c2cn(Cc3ccncc3)nc21 [Compound 4032] |  |  | 300 nM |  | 0.55 µM
CCN1c2ccc(Cl)cc2N(c2ccccc2)C(=O)c2c1ncn2C [Compound 5001] |  |  | 1500 nM |  | 0.36 µM
CN1c2ccc(C(F)(F)F)cc2N(c2ccccc2)C(=O)c2c1ncn2C [Compound 5003] |  |  | 5500 nM |  | 0.26 µM
CN1c2cccc(F)c2N(c2ccccc2)C(=O)c2c1ncn2C [Compound 5005] |  |  | 400 nM |  | 0.32 µM
COCCNCc1ccc(Cn2cnc3c2C(=O)N(c2ccccc2)c2cc(Cl)ccc2N3C)cc1 [Compound 5026] |  |  | 900 nM |  | 0.17 µM
CN1c2ccc(Cl)cc2N(c2ccccc2)C(=O)c2scnc21 [Compound 6001] |  |  | 8100 nM |  | 1 µM
CCN1C(=O)C2(CCc3cc(-c4ccnn4C)ccc32)C(=O)N(c2ccccc2)c2cc(C(F)(F)F)ccc21 (centres unmarked) [Compound 7012] | 0.2 µM |  | 200 nM |  | 
CCN1C(=O)C2(CCc3c2ccc(-c2cncnc2)c3OC)C(=O)N(c2ccccc2)c2cc(C(F)(F)F)ccc21 (centres unmarked) [Compound 7030] | 0.17 µM |  | 600 nM |  | 
CCN1C(=O)C2(C=C(C)c3cc(O)ccc32)C(=O)N(c2ccccc2)c2cc(C(F)(F)F)ccc21 (centres unmarked) [Compound 7037] | 0.3 µM |  | 1000 nM |  | 
